Experimental data from US20230064983A1 (priority 2020, published 2023).
Several values for one entry are separate records, joined by “and”; a condition that tells them apart may be missing. Equal values may be shown once.

Columns and labels:
Bub1 = target: T1, Bub1 (Homo sapiens, UniProt O43683); assay: Bub1 high ATP kinase assay (TR-FRET); type: biochemical; conditions: Bub1 high ATP (2 mM) IC50, TR-FRET, 2 mM ATP; Table 3
T1 construct: catalytic domain of human Bub1 (amino acids 704-1085); His6 (N); made in house; host or cells: insect cells (Hi5)
T1 sequence (O43683 704-1085): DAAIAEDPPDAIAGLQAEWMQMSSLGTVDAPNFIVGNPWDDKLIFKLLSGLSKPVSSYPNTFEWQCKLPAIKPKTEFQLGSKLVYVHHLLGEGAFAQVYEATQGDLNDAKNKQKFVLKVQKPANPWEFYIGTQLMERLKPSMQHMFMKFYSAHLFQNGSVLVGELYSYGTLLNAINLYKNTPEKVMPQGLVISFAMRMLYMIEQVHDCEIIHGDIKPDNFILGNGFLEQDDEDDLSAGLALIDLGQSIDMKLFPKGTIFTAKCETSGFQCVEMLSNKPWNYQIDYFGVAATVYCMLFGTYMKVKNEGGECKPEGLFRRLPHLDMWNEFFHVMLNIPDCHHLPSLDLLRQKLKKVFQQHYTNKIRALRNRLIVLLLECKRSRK
How it was run: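 Read-out was the 665/620 nm TR-FRET ratio after 1 h at 22 °C with EDTA stop mix (streptavidin-XL665, anti-phosphoserine antibody, Eu anti-mouse IgG). Beforehand, a biotinylated peptide was phosphorylated for 60 min at 22 °C under high ATP by His6-tagged human Bub1 residues 704-1085 expressed in Hi5 cells, about 200 ng/ml.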

[1] = target: Ba/F3-EGFR-D770_N771insSVD cells (Homo sapiens, UniProt P00533, DUP768-770, cells depend on it); assay: Ba/F3 cell survival assay, EGFR D770_N771insSVD; type: cell-based; conditions: Cell Titer-Glo, 48 h, without IL-3; Table 4; read-out: BA/F3 (insSVD) IC50
Ba/F3-EGFR-D770_N771insSVD cells, sequence (P00533 with tags, fused parts or gaps DUP768-770): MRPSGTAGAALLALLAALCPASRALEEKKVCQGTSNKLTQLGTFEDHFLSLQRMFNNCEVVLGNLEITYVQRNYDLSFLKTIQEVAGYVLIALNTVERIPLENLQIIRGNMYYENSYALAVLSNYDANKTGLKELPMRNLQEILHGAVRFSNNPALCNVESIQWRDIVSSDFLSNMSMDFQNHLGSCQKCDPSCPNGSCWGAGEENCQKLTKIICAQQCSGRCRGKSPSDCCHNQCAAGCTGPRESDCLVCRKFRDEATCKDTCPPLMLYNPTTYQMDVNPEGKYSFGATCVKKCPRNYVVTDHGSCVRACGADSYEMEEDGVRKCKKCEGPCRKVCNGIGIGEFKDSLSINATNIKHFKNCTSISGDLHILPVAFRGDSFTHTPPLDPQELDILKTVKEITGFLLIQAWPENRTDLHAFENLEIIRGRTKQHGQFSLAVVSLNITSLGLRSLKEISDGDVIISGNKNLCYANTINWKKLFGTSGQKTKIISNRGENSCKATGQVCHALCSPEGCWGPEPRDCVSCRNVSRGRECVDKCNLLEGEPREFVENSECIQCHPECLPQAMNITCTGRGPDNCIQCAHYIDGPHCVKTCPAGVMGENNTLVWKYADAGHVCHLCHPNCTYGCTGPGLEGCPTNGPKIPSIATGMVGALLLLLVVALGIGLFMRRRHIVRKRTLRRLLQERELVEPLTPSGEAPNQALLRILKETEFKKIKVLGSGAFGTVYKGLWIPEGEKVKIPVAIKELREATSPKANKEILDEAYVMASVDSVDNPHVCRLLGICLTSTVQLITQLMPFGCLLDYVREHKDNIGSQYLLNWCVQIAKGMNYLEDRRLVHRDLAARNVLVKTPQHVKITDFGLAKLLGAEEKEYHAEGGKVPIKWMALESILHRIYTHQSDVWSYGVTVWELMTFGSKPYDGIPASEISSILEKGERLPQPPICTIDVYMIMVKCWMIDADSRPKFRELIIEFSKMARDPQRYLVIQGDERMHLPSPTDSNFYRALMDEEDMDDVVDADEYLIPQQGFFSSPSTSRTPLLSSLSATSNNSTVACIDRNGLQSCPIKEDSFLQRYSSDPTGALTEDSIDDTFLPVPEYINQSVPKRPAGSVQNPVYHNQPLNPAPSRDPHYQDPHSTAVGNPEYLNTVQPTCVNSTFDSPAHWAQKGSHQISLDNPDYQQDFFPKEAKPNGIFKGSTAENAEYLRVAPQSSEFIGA

Ba/F3-EGFR-WT cells = Ba/F3-EGFR-WT cells (Homo sapiens, UniProt P00533); assay: Ba/F3 cell survival assay, wild type EGFR; type: cell-based; conditions: Cell Titer-Glo, 48 h, with 10 ng/mL EGF; Table 4; read-out: BA/F3 (wild type) IC50
Ba/F3-EGFR-WT cells, sequence (P00533 whole entry, looked up, stated change not applied): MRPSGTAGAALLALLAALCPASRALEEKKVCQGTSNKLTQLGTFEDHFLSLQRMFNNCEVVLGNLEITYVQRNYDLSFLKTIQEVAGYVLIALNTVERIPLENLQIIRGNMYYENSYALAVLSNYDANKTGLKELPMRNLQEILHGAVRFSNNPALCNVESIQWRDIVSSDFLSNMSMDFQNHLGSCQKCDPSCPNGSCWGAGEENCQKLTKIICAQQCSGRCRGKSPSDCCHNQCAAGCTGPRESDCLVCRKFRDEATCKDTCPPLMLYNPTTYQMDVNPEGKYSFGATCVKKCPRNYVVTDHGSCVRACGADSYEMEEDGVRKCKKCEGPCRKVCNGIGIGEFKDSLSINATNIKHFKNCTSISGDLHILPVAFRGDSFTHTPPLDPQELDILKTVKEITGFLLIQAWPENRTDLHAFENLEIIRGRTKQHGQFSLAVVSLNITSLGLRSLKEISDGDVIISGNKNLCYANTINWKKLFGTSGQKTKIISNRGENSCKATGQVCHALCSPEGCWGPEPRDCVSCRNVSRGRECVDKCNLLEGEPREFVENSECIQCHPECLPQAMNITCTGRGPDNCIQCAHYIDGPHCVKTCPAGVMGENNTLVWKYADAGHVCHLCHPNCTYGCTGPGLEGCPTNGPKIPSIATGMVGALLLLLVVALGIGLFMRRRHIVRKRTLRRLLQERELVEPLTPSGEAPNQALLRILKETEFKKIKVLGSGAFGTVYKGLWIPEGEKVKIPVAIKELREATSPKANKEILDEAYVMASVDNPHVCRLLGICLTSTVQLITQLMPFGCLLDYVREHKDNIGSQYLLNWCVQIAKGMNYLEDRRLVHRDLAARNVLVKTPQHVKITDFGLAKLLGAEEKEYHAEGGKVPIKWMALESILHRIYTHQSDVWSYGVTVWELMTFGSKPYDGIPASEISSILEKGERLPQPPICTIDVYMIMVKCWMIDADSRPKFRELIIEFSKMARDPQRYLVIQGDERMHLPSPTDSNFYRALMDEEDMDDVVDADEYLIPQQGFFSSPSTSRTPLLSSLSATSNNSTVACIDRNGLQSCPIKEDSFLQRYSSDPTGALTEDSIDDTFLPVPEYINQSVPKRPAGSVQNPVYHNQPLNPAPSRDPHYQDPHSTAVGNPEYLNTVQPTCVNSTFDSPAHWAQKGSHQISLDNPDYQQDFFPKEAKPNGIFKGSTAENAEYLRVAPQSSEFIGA

[2] = target: T2, EGFR with insertion SVD between D770 and N771 (mutEGFR D770_N771insSVD) (Homo sapiens, UniProt P00533, DUP768-770); assay: Exon20-Mutant-EGFR(D770_N771insSVD) kinase assay (TR-FRET); type: biochemical; conditions: 2 mM ATP, Table 2
T2 construct: amino acids R669 to A1210; made in house; host or cells: Sf9 insect cells (baculovirus)
T2 sequence (P00533 other isoform, or with tags, fused parts or gaps DUP768-770): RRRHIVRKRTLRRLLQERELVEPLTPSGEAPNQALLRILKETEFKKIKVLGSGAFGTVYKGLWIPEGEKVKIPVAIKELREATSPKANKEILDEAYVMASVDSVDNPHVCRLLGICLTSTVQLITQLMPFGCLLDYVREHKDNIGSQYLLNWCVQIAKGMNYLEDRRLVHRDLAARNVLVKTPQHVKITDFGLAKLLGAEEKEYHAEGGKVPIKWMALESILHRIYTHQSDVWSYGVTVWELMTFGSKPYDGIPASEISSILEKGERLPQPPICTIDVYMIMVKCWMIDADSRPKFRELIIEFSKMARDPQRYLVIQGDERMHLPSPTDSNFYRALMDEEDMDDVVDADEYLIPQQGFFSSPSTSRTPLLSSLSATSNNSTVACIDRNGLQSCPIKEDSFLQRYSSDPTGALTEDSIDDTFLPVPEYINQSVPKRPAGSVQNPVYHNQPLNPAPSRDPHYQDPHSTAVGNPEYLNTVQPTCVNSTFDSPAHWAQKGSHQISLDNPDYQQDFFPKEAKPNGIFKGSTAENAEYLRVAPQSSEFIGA

Row | SMILES | IC50 (Bub1) | mutEGFR (D770_N771insSVD) kinase assay IC50 [2] | GI50 [1] | GI50 (Ba/F3-EGFR-WT cells)
1 | COc1c(Cl)cccc1Nc1c(-c2ccncc2OC[C@@H]2CN(C)CCO2)[nH]c2c1C(=O)N[C@@H]1CCC[C@H]21 [Example 64, (5aR,8aS)-3-(3-chloro-2-methoxyanilino)-2-(3-{[(2S)-4-methylmorpholin-2-yl]methoxy}pyridin-4-yl)-5,5a,6,7,8,8a-hexahydrocyclopenta[b]pyrrolo[2,3-d]pyridin-4(1H)-one] | > 20000 nM | 0.361 nM | 47.6 nM | 643 nM
2 | COc1c(Cl)cccc1Nc1c(-c2ccncc2OCC2COCCO2)[nH]c2c1C(=O)N[C@@H]1CCC[C@H]21 (single isomer, unassigned) [Example 54] | 6190 nM | 0.198 nM | 42.4 nM | 675 nM
3 | COc1c(Cl)cccc1Nc1c(-c2ccncc2OCC2COC(C)(C)CO2)[nH]c2c1C(=O)N[C@H](C)C2 (single isomer, unassigned) [Example 79] | 17300 nM and > 20000 nM | 0.455 nM | 151 nM | 1910 nM
4 | COc1c(Cl)cccc1Nc1c(-c2ccncc2OCC2OCCC2(F)F)[nH]c2c1C(=O)N[C@H](C)C2 (mixture of isomers) [Example 71, (6R)-3-(3-chloro-2-methoxy-anilino)-2-{3-[(3,3-difluorotetrahydrofuran-2-yl)methoxy]-4-pyridyl}-6-methyl-1,5,6,7-tetrahydropyrrolo[3,2-c]pyridin-4-one] | 5740 nM | 0.186 nM | 42.9 nM | 731 nM
5 | COCC(C)Oc1cnccc1-c1[nH]c2c(c1Nc1cccc(Cl)c1OC)C(=O)N[C@H](C)C2 (single isomer, unassigned) [Example 42] | 8810 nM | 0.213 nM | 15.3 nM | 531 nM
6 | C[C@@H]1Cc2[nH]c(-c3ccncc3OC[C@@H]3CCCO3)c(Nc3cccc(F)c3CC(F)F)c2C(=O)N1 [Example 63, (6R)-3-[2-(2,2-difluoroethyl)-3-fluoroanilino]-6-methyl-2-(3-{[(2S)-oxolan-2-yl]methoxy}pyridin-4-yl)-1,5,6,7-tetrahydro-4H-pyrrolo[3,2-c]pyridin-4-one] | 14100 nM | 0.211 nM | 117 nM | 1170 nM
7 | COc1c(Cl)cccc1Nc1c(-c2ccncc2OCCC(C)OC)[nH]c2c1C(=O)N[C@H](C)C2 (mixture of isomers) [Example 120, (6R)-3-(3-chloro-2-methoxy-anilino)-2-[3-(3-methoxybutoxy)-4-pyridyl]-6-methyl-1,5,6,7-tetrahydropyrrolo[3,2-c]pyridin-4-one] | 1480 nM | 0.0901 nM | 31.1 nM | 358 nM
8 | COc1c(Cl)cccc1Nc1c(-c2ccncc2OC[C@@H]2CCCO2)[nH]c2c1C(=O)NCC2CCO (mixture of isomers) [Example 16, 3-(3-chloro-2-methoxyanilino)-7-(2-hydroxyethyl)-2-(3-{[(2S)-oxolan-2-yl]methoxy}pyridin-4-yl)-1,5,6,7-tetrahydro-4H-pyrrolo[3,2-c]pyridin-4-one] | > 20000 nM | 0.413 nM | 63.8 nM | 644 nM
9 | COc1c(Cl)cccc1Nc1c(-c2ccncc2OCC2CCCCO2)[nH]c2c1C(=O)NCC2C (single isomer, unassigned) [Example 48, 3-(3-chloro-2-methoxy-anilino)-7-methyl-2-[3-(tetrahydropyran-2-ylmethoxy)-4-pyridyl]-1,5,6,7-tetrahydropyrrolo[3,2-c]pyridin-4-one] | 9130 nM | 0.227 nM | 25.7 nM | 611 nM
10 | COc1c(Cl)cccc1Nc1c(-c2ccncc2OCC2CCCCN2C)[nH]c2c1C(=O)N[C@H](C)C2 (mixture of isomers) [Example 83, (6R)-3-(3-chloro-2-methoxy-anilino)-6-methyl-2-{3-[(1-methyl-2-piperidyl)methoxy]-4-pyridyl}-1,5,6,7-tetrahydropyrrolo[3,2-c]pyridin-4-one] | > 20000 nM | 0.849 nM | 24.6 nM | 669 nM
11 | COc1c(Cl)cccc1Nc1c(-c2ccncc2OC[C@@H]2CCCO2)[nH]c2c1C(=O)NC(C)C2 (mixture of isomers) [Example 3, 3-(3-chloro-2-methoxyanilino)-6-methyl-2-(3-{[(2S)-oxolan-2-yl]methoxy}pyridin-4-yl)-1,5,6,7-tetrahydro-4H-pyrrolo[3,2-c]pyridin-4-one] | 5390 nM | 0.0854 nM | 28.5 nM | 328 nM
12 | COc1c(Cl)cccc1Nc1c(-c2ccncc2OCC2COC(C)(C)CO2)[nH]c2c1C(=O)NCC2C (single isomer, unassigned) [Example 94, 3-(3-chloro-2-methoxy-anilino)-2-{3-[(5,5-dimethyl-1,4-dioxan-2-yl)methoxy]-4-pyridyl}-7-methyl-1,5,6,7-tetrahydropyrrolo[3,2-c]pyridin-4-one] | > 20000 nM | 0.631 nM | 66.6 nM | 1080 nM
13 | COc1c(Cl)cccc1Nc1c(-c2ccncc2OCC2COCCO2)[nH]c2c1C(=O)NCC2C (single isomer, unassigned) [Example 35, 3-(3-chloro-2-methoxy-anilino)-2-[3-(1,4-dioxan-2-ylmethoxy)-4-pyridyl]-7-methyl-1,5,6,7-tetrahydropyrrolo[3,2-c]pyridin-4-one] | 12400 nM | 0.272 nM | 54.1 nM | 811 nM
14 | COc1c(Cl)cccc1Nc1c(-c2ccncc2OCC2COC(C)(C)CO2)[nH]c2c1C(=O)N[C@H](C)C2 (single isomer, unassigned) [Example 78] | > 20000 nM | 0.26 nM | 20.7 nM | 488 nM

Continued by falling IC50 (Bub1), values first:

Row | IC50 (Bub1) | mutEGFR (D770_N771insSVD) kinase assay IC50 [2] | SMILES | GI50 [1] | GI50 (Ba/F3-EGFR-WT cells)
15 | 5160 nM | 0.201 nM | COc1c(Cl)cccc1Nc1c(-c2ccncc2OCC2COCCO2)[nH]c2c1C(=O)NCC2C (stereo not drawn) [Example 33, 3-(3-chloro-2-methoxy-anilino)-2-[3-(1,4-dioxan-2-ylmethoxy)-4-pyridyl]-7-methyl-1,5,6,7-tetrahydropyrrolo[3,2-c]pyridin-4-one] | 73.1 nM | 844 nM
16 | 2390 nM | 0.176 nM | COc1c(Cl)cccc1Nc1c(-c2ccncc2OCC2CCCCO2)[nH]c2c1C(=O)N[C@H](C)C2 (single isomer, unassigned) [Example 29] | 11 nM | 288 nM
17 | 1030 nM | 0.121 nM | Cc1c(Cl)cccc1Nc1c(-c2ccncc2OCC2COCCO2)[nH]c2c1C(=O)N[C@H](C)C2 (stereo partly drawn) [Example 102, (6R)-3-(3-chloro-2-methylanilino)-2-{3-[(1,4-dioxan-2-yl)methoxy]pyridin-4-yl}-6-methyl-1,5,6,7-tetrahydro-4H-pyrrolo[3,2-c]pyridin-4-one] | 38.7 nM | 869 nM
18 | 768 nM | 0.256 nM | COc1c(Cl)cccc1Nc1c(-c2ccncc2OCC2COC(C)(C)CO2)[nH]c2c1C(=O)NC1(CCC1)C2 (single isomer, unassigned) [Example 130, 3′-(3-chloro-2-methoxyanilino)-2′-{3-[(5,5-dimethyl-1,4-dioxan-2-yl)methoxy]pyridin-4-yl}-1′,7′-dihydrospiro[cyclobutane-1,6′-pyrrolo[3,2-c]pyridin]-4′(5′H)-one] | 8.01 nM | 418 nM
19 | 758 nM | 0.239 nM | COc1c(Cl)cccc1Nc1c(-c2ccncc2OC[C@@H]2CCCO2)[nH]c2c1C(=O)NC1CCCC21 (stereo in doubt) [Example 55, (5aR*,8aS*)-3-(3-chloro-2-methoxyanilino)-2-(3-{[(2S)-oxolan-2-yl]methoxy}-4-pyridyl)-5,5a,6,7,8,8a-hexahydrocyclopenta[b]pyrrolo[2,3-d]pyridin-4(1H)-one] | 75.1 nM | 978 nM
20 | 446 nM | 0.235 nM | COc1c(Cl)cccc1Nc1c(-c2ccncc2OCC2COCCO2)[nH]c2c1C(=O)NC1(CCC1)C2 (single isomer, unassigned) [Example 125, 3-(3-chloro-2-methoxy-anilino)-2-[3-(1,4-dioxan-2-ylmethoxy)-4-pyridyl]spiro[5,7-dihydro-1H-pyrrolo[3,2-c]pyridine-6,1′-cyclobutane]-4-one] | 40.4 nM | 948 nM
21 | 393 nM | 0.235 nM | COc1c(Cl)cccc1Nc1c(-c2ccncc2OCC(C)(C)OC)[nH]c2c1C(=O)N[C@@H](C)C2 [Example 2, (6S)-3-(3-chloro-2-methoxyanilino)-2-[3-(2-methoxy-2-methylpropoxy)pyridin-4-yl]-6-methyl-1,5,6,7-tetrahydro-4H-pyrrolo[3,2-c]pyridin-4-one] | 64.6 nM | 575 nM
